Assay results taken from patent US10670605B2, “Cysteine reactive probes and uses thereof” (The Scripps Research Institute, priority 2015, dated 2020).

Tests used:
Experiment in all cases: Competitive isoTOP-ABPP in situ (fragment-treated cells)
Assay type in all cases: cell-based
[1] = biological target: T1, cysteines in MDA-MB-231 and Ramos cells (Homo sapiens, UniProt Q9NQ88)
T1 sequence (Q9NQ88 1-270): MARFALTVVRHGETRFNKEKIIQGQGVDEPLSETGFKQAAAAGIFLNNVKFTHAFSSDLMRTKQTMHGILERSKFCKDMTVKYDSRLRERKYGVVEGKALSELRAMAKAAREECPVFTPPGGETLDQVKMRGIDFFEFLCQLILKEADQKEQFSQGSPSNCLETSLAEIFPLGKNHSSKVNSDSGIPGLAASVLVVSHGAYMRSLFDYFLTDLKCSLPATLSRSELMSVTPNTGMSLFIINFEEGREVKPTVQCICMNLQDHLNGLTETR

[2] = biological target: T2, cysteines in MDA-MB-231 and Ramos cells (Homo sapiens, UniProt Q9NXV6)
T2 sequence (Q9NXV6 1-580): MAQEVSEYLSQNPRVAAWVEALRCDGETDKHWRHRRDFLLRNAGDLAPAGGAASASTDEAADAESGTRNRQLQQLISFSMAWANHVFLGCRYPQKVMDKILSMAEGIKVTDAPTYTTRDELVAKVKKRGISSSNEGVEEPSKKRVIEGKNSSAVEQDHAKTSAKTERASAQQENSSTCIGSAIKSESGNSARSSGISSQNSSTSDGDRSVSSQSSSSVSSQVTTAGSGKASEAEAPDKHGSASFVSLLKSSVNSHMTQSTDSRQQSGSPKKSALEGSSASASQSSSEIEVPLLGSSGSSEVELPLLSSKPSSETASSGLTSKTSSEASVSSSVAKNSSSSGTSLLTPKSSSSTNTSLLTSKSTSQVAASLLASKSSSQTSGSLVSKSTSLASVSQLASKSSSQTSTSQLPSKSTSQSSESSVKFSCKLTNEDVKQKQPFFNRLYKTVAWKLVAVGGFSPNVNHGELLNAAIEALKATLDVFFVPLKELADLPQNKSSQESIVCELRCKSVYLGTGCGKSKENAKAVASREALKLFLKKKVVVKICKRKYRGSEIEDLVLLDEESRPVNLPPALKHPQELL

[3] = biological target: T3, cysteines in MDA-MB-231 and Ramos cells (Homo sapiens, UniProt O75439)
T3 sequence (O75439 44-489): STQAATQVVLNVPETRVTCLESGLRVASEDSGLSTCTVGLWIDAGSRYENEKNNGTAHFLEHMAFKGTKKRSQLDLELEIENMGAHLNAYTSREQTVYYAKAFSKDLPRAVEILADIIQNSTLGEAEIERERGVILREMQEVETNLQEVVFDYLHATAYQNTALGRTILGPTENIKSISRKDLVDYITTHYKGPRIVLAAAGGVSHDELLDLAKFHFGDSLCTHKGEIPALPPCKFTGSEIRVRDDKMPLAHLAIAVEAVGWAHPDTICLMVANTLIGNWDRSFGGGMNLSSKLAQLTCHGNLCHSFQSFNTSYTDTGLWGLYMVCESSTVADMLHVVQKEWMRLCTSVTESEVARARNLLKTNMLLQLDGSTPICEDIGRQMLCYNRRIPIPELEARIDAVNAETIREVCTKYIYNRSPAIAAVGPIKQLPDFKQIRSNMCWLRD

[4] = biological target: T4, cysteines in MDA-MB-231 and Ramos cells (Homo sapiens, UniProt Q96P48); conditions: 200 μM, insitu
T4 sequence (Q96P48 1-1450): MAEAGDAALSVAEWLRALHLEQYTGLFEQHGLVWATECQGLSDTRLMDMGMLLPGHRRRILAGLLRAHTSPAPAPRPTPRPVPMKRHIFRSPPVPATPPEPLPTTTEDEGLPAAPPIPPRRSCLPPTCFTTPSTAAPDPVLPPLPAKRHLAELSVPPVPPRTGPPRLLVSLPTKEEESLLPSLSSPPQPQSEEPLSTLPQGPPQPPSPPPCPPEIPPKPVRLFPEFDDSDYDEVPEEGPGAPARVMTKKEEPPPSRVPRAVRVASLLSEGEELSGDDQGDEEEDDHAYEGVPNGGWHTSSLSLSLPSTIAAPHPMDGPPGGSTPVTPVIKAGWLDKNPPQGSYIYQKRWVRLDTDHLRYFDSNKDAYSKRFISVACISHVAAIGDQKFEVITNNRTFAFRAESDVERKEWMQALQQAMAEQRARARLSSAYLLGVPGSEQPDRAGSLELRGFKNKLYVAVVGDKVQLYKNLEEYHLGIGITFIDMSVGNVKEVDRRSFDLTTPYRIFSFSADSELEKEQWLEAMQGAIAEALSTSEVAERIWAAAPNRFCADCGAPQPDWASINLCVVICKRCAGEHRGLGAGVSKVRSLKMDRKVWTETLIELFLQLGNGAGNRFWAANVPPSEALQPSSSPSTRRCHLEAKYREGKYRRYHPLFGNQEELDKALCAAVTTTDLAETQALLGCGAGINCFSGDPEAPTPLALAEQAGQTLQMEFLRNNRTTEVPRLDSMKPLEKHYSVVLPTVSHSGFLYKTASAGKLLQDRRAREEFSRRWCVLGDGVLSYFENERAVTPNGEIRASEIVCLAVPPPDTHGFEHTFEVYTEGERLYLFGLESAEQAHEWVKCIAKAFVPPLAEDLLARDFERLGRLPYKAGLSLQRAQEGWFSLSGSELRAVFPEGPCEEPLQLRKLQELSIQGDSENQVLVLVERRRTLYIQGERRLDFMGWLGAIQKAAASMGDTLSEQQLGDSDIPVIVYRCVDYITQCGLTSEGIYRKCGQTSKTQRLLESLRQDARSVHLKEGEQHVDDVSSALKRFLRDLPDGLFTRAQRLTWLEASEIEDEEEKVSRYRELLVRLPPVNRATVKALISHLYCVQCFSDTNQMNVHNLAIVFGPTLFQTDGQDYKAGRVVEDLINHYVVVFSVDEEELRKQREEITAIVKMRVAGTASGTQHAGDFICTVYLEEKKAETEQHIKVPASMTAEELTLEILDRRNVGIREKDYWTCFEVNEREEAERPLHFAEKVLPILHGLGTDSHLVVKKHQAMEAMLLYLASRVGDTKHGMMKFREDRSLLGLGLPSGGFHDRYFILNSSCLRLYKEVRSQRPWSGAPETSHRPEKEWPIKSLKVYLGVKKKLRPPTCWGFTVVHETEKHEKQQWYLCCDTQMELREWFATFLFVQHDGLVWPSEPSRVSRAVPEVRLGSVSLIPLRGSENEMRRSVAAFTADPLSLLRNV

## CC(C)CCOCCNC(=O)CCl [compound 27]
[1]; 200 μM, insitu, 231
  isoTOP-ABPP ratio Q9NQ88_C114: 0.4
  isoTOP-ABPP ratio Q9NQ88_C161: 0.6
[2]; 200 μM, insitu, 231
  isoTOP-ABPP ratio Q9NXV6_C516: 1.4
[3]; 200 μM, insitu, 231
  isoTOP-ABPP ratio O75439_C265: 1.6

## COc1ccccc1OCCNC(=O)CCl [compound 28]
[3]; 200 μM, insitu, 231
  isoTOP-ABPP ratio O75439_C265: 0.6

## O=C(CCl)N1CCN(S(=O)(=O)c2ccccc2F)CC1 [compound 10]
[1]; 200 μM, insitu, 231
  isoTOP-ABPP ratio Q9NQ88_C114: 2.1
  isoTOP-ABPP ratio Q9NQ88_C161: 4.6
[1]; 200 μM, insitu, ramos
  isoTOP-ABPP ratio Q9NQ88_C161: 2.1
[2]; 200 μM, insitu, 231
  isoTOP-ABPP ratio Q9NXV6_C516: 7.7
[3]; 200 μM, insitu, ramos
  isoTOP-ABPP ratio, cysteine O75439_C265: 2.1
[4]; 231
  isoTOP-ABPP ratio, cysteine Q96P48_C900: 1.8

## CC1CCc2ccccc2N1C(=O)CCl (stereo not drawn) [compound 45]
[1]; 200 μM, insitu, 231
  isoTOP-ABPP ratio Q9NQ88_C114: 4.6
  isoTOP-ABPP ratio Q9NQ88_C161: 20.0

## Cc1ccc(C=C(C#N)C(=O)NCCN2CCOCC2)cc1 [compound 41]
[1]; 200 μM, insitu, 231
  isoTOP-ABPP ratio Q9NQ88_C114: 0.6
[2]; 200 μM, insitu, 231
  isoTOP-ABPP ratio Q9NXV6_C516: 0.9
[3]; 200 μM, insitu, 231
  isoTOP-ABPP ratio O75439_C265: 1.3
[4]; 231
  isoTOP-ABPP ratio Q96P48_C900: 0.5

## COc1ccc2c(c1)CCCN2C(=O)CCl [compound 2]
[1]; 200 μM, insitu, 231
  isoTOP-ABPP reactivity Q9NQ88_C114 TIGAR: 2.8
  isoTOP-ABPP reactivity Q9NQ88_C161 TIGAR: 6.0
[2]; 200 μM, insitu, 231
  isoTOP-ABPP reactivity Q9NXV6_C516 CDKN2AEP: 20.0
[4]; 231
  isoTOP-ABPP reactivity Q96P48_C900 ARAP1: 5.5

## C=CC(=O)Nc1cc(F)c(N2CCN(C(=O)OC(C)(C)C)CC2)c(F)c1 [compound 38]
[2]; 200 μM, insitu, 231
  isoTOP-ABPP ratio Q9NXV6_C516: 1.8

## O=C(CCl)NC(=O)NC12CC3CC(CC(C3)C1)C2 [compound 12]
[2]; 200 μM, insitu, 231
  isoTOP-ABPP ratio Q9NXV6_C516: 3.3
[4]; 231
  isoTOP-ABPP ratio, cysteine Q96P48_C900: 1.9

## C=CC(=O)N(Cc1cccnc1)c1cc(C(F)(F)F)cc(C(F)(F)F)c1 [compound 31]
[1]; 200 μM, insitu, 231
  isoTOP-ABPP ratio Q9NQ88_C161: 1.0
[1]; 200 μM, insitu, ramos
  isoTOP-ABPP ratio Q9NQ88_C161: 2.6
[3]; 200 μM, insitu, 231
  isoTOP-ABPP ratio O75439_C265: 1.0
[3]; 200 μM, insitu, ramos
  isoTOP-ABPP ratio O75439_C265: 1.4
[4]; 231
  isoTOP-ABPP ratio Q96P48_C900: 1.1

## Cn1cc(S(=O)(=O)N2CCOCC2)cc1C(=O)NC(=O)CCl [compound 11]
[1]; 100 μM in situ 231
  isoTOP-ABPP ratio Q9NQ88_C114: 0.8
  isoTOP-ABPP ratio Q9NQ88_C161: 0.9
[2]; 100 μM in situ 231
  isoTOP-ABPP ratio Q9NXV6_C516: 1.0
[3]; 100 μM in situ 231
  isoTOP-ABPP ratio, cysteine O75439_C265: 1.0

## O=C(CCl)NCCc1c[nH]c2ccccc12 [compound 13]
[1]; 200 μM, insitu, 231
  isoTOP-ABPP ratio Q9NQ88_C114: 1.1
  isoTOP-ABPP ratio Q9NQ88_C161: 1.1
[1]; 200 μM, insitu, ramos
  isoTOP-ABPP ratio Q9NQ88_C114: 1.2
  isoTOP-ABPP ratio Q9NQ88_C161: 1.5
[2]; 200 μM, insitu, 231
  isoTOP-ABPP ratio Q9NXV6_C516: 2.4
[2]; 200 μM, insitu, ramos
  isoTOP-ABPP ratio Q9NXV6_C516: 1.6
[4]; 231
  isoTOP-ABPP ratio, cysteine Q96P48_C900: 1.2

## O=C(CCl)N1CCN(CC(=O)N2CCOCC2)CC1 [compound 29]
[1]; 200 μM, insitu, ramos
  isoTOP-ABPP ratio Q9NQ88_C114: 0.9
  isoTOP-ABPP ratio Q9NQ88_C161: 1.3
[2]; 200 μM, insitu, ramos
  isoTOP-ABPP ratio Q9NXV6_C516: 1.1
[4]; ramos
  isoTOP-ABPP ratio Q96P48_C900: 1.1

## O=C(CCl)NC12CC3CC(CC(C3)C1)C2 [compound 21]
[1]; 200 μM, insitu, 231
  isoTOP-ABPP ratio Q9NQ88_C114: 0.9
  isoTOP-ABPP ratio Q9NQ88_C161: 1.0
[2]; 200 μM, insitu, 231
  isoTOP-ABPP ratio Q9NXV6_C516: 0.8
[4]; 231
  isoTOP-ABPP ratio, cysteine Q96P48_C900: 0.7

## O=C(CCl)N1CCC(Cc2ccccc2)CC1 [compound 9]
[1]; 200 μM, insitu, 231
  isoTOP-ABPP reactivity Q9NQ88_C114 TIGAR: 1.9
  isoTOP-ABPP reactivity Q9NQ88_C161 TIGAR: 2.6
[2]; 200 μM, insitu, 231
  isoTOP-ABPP reactivity Q9NXV6_C516 CDKN2AEP: 6.6
